These results are taken from US20240041050A1, “CELL PENETRATING PEPTIDE MEDIATED RNA TRANSDUCTION WITHIN INSECT CELLS” (PIONEER HI-BRED INTERNATIONAL, INC., priority 2020, published 2024).

Experiment [1] has as its system western corn rootworm (WCR) larvae. Description: Oral toxicity screening of CPPs in artificial diet. Format: in vivo. Particulars: first instar WCR larvae, mortality and stunting. How it is done:
Briefly, CPPs were incorporated into standard WCR artificial diet in 96-well microtiter plate format. A 25 μL aliquot of dosing solution was combined with 75 μL molten low-melt WCR diet and shaken on an orbital shaker to mix. Once diet solidified, preconditioned first instar WCR (freshly-hatched insects placed on neutral diet for 24 hours prior to transfer to test diet) were added to the diet plates at a rate of 1 insect·well^−1. Plates were placed inside an incubator (Percival Scientific, Inc., Perry, IA) set to 27° C., 65% RH, and a 24-hour dark cycle. The assay was scored for mortality and stunting affects after 7 and 12 days, without diet refresh, on a 0-3 scale, where 3=mortality, 2=severe stunting, 1=stunting, 0=no affect when compared with untreated larvae. The assay was repeated three times and end-results were tabulated using all three replicates and converted to percentages (Table 5).

The subject of another experiment is DU182A cells. Description: CPP-mediated delivery of mCherry mRNA cargo into insect cells. It counts as cell-based, Diabrotica undecimpunctata. Particulars: complex of 75 μM unlabeled CPP and 10 μg mCherry mRNA, overnight. The text has this:
Sample preparation and analysis methods were based on those previously reported (Jafari et al. (201 4) “Serum stability and physicochemical characterization of a novel amphipathic peptide C6M 1 for siRNA delivery”, PLoS One, 9(5), e97797; and Gillet et al. (2017) “Investigating Engineered Ribonucleoprotein Particles to Improve Oral RNAi Delivery in Crop Insect Pests”, Frontiers in Physiology, 8(256), doi: 10.3389/fphys.2017.00256). Reagents are described in Examples 1 and 2. Nanocomplex samples were prepared in one of several ways, depending on type of CPP, RNA, or assay. […] Reaction volumes added to cells were 6.38 μL CPP and 6.38 μL mRNA. Final optimal CPP concentration was assessed by amount of fluorescent signal apparent within cells. For insect cell-based assays with CPP-YFP·Cy3-dsRNA or CPP·dsRNA, first a complex formation solution was prepared in molecular biology-grade water containing 90 mg·mL^−1 maltose, 9 mg·mL^−1 mannitol, 392. 16 mM CaCI2, pH 7.0, and vacuum-filtered using Corning™ Disposable Vacuum Filter and Storage System containing a cellulose nitrate filter. Then, increasing amounts of CPP-YFP were added to Cy3-dsRNA, from a molar ratio (CPP-YFP:Cy3-dsRNA) of 1:4 through 8:1 and incubated protected from light at 25° C. for 90 minutes prior to assessment via gel shift and DLS. Reaction volumes added per cell well were comprised of 17 μL reaction solution, 1 μL CPP, 1 μL dsRNA, and 1 μL molecular biology grade water; reaction sizes for larger total volumes were increased in increments of 20 μL and component ratio was held constant to maintain an ionic strength of […]. Final optimal molar ratio selected for cell experiments were determined by increase of the apparent size of the Cy3-dsRNA band on a native agarose gel (FIG. 2A and FIG. 2B), and/or appearance and increase in size of the complex peak detected by a Zetasizer Ultra (Malvern Panalytical, Malvern, United Kingdom) DLS instrument (FIG. 2C). […] Final optimal BAPC1 concentration was assessed by amount of fluorescent signal apparent within cells. […]

Peptide text beside a SMILES is read from it.

Take `N=C(N)NCCC[C@H](NC(=O)[C@H](Cc1c[nH]c2ccccc12)NC(=O)[C@H](CCCNC(=N)N)NC(=O)[C@@H](N)CS)C(=O)N[C@@H](Cc1c[nH]c2ccccc12)C(=O)N[C@@H](CCCCN)C(=O)N[C@@H](CS)C(=O)N[C@@H](CS)C(=O)N[C@@H](CCCCN)C(=O)N[C@@H](CCCCN)C(=O)O` [CyLoP-1, CRWRWKCCKK] (H-CRWRWKCCKK-OH; N-terminus and C-terminus assumed): the “Affected (%)” value in experiment [1] (0.195 ppm in artificial diet), in experiment [1] (0.391 ppm in artificial diet), in experiment [1] (0.781 ppm in artificial diet), in experiment [1] (1.56 ppm in artificial diet), in experiment [1] (3.13 ppm in artificial diet) and in experiment [1] (6.25 ppm in artificial diet) was 0% each time. In addition, the “Affected (%)” value in experiment [1] (12.5 ppm in artificial diet), in experiment [1] (25.0 ppm in artificial diet), in experiment [1] (50.0 ppm in artificial diet), in experiment [1] (100 ppm in artificial diet) and in experiment [1] (200 ppm in artificial diet) was 0% in each case. In addition, in the experiment with DU182A cells, the “fluorescent protein translated from delivered mCherry mRNA (fluorescent signal inside cells)” value was “Translation of mRNA into a functional fluorescent protein occurred”.
